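Compound exposure: 48 hours, 5 concentrations, 96-well plates. The concentration for 50% growth inhibition is given as GI50. TGI: concentration producing complete growth inhibition.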
What was measured:
Assay in all cases: NCI-60 cell line screen, 48 h
[1] = test system: MDA-MB-231 breast
[2] = test system: T-47D breast
[3] = test system: SW-620 colon
[4] = test system: HCC-2998 colon
[5] = test system: EKVX NSCLC
[6] = test system: 786-0 renal
[7] = test system: SN12C renal
[8] = test system: PC-3 prostate
[9] = test system: CCRF-CEM leukemia
[10] = test system: SF-539 CNS
[11] = test system: NCI-H460 lung
[12] = test system: BT-549 breast
[13] = test system: OVCAR-8 ovarian
[14] = test system: SK-MEL-28 melanoma
[15] = test system: SR leukemia
[16] = test system: SK-MEL-2 melanoma
[17] = test system: RPMI-8226 leukemia
[18] = test system: HL-60(TB) leukemia
[19] = test system: NCI-H522 lung
[20] = test system: RXF 393 renal
[21] = test system: NCI-H226 lung
[22] = test system: MOLT-4 leukemia
[23] = test system: LOX IMVI melanoma
[24] = test system: HCT-116 colon
[25] = test system: A498 renal
[26] = test system: ACHN renal
[27] = test system: DU-145 prostate
[28] = test system: IGROV1 ovarian
[29] = test system: COLO 205 colon
[30] = test system: MDA-MB-435
[31] = test system: KM12 colon
[32] = test system: SF-295 CNS
[33] = test system: NCI-H23 lung
[34] = test system: TK-10 renal
[35] = test system: MCF7 breast
[36] = test system: OVCAR-5 ovarian
[37] = test system: UACC-257 melanoma
[38] = test system: HS 578T breast
[39] = test system: UACC-62 melanoma
[40] = test system: M14 melanoma
[41] = test system: SNB-19 CNS
[42] = test system: U251 CNS
[43] = test system: SF-268 CNS
[44] = test system: OVCAR-4 ovarian
[45] = test system: CAKI-1 renal
[46] = test system: HCT-15 colon
[47] = test system: MDA-N
[48] = test system: SK-MEL-5 melanoma
[49] = test system: HOP-92 NSCLC
[50] = test system: UO-31 renal
[51] = test system: SNB-75 CNS
[52] = test system: A549 NSCLC
[53] = test system: K-562 leukemia
[54] = test system: HOP-62 NSCLC
[55] = test system: HT29 colon
[56] = test system: NCI/ADR-RES ovarian
[57] = test system: SK-OV-3 ovarian
[58] = test system: MALME-3M melanoma
[59] = test system: OVCAR-3 ovarian

## C=C1C[C@@H](O)[C@@H](Br)C(C)(C)[C@]12CCC(C)(Cl)C(Br)C2 (stereo not given in full)
[1]
  TGI: > 85.2 µM
[2]
  TGI: > 100 µM
[3]
  TGI: > 100 µM
[4]
  TGI: 35.3 µM
[5]
  TGI: 33.4 µM
[6]
  TGI: > 78.2 µM
[7]
  TGI: 36 µM
[8]
  TGI: 8.17 µM
[9]
  TGI: > 100 µM
[10]
  TGI: 32.3 µM
[11]
  TGI: > 84.5 µM
[12]
  TGI: > 100 µM
[13]
  TGI: > 100 µM
[14]
  TGI: > 100 µM
[15]
  TGI: > 100 µM
[16]
  TGI: 32.3 µM
[17]
  TGI: > 100 µM
[18]
  TGI: 80.8 µM
[19]
  TGI: 44.1 µM
[20]
  TGI: > 76.1 µM
[21]
  TGI: > 84.8 µM
[22]
  TGI: > 100 µM
[23]
  TGI: 49.5 µM
[24]
  TGI: > 100 µM
[25]
  TGI: 97.5 µM
[26]
  TGI: > 87.5 µM
[27]
  TGI: > 100 µM
[28]
  TGI: 46.4 µM
[29]
  TGI: > 33.7 µM
[30]
  TGI: > 71.2 µM
[31]
  GI50: 793 nM
  TGI: 3.8 µM
[32]
  TGI: > 85.3 µM
[33]
  TGI: > 74.9 µM
[34]
  TGI: > 100 µM
[35]
  TGI: > 79.3 µM
[36]
  TGI: 19.8 µM
[37]
  TGI: > 70.7 µM
[38]
  TGI: > 100 µM
[39]
  TGI: > 100 µM
[40]
  TGI: > 100 µM
[41]
  TGI: > 31.6 µM
[42]
  TGI: > 55.9 µM
[43]
  TGI: > 77.4 µM
[44]
  TGI: > 100 µM
[45]
  TGI: > 90.4 µM
[46]
  TGI: > 100 µM
[47]
  TGI: > 59.8 µM
[48]
  TGI: 23.4 µM
[49]
  TGI: > 73.6 µM
[50]
  TGI: > 100 µM
[51]
  TGI: > 71.5 µM
[52]
  TGI: > 86 µM
[53]
  TGI: > 100 µM
[54]
  TGI: > 65.2 µM
[55]
  TGI: > 100 µM
[56]
  TGI: 98 µM
[57]
  TGI: > 100 µM
[58]
  TGI: 59.4 µM
[59]
  TGI: 37.4 µM

## COC(=O)C1=NN2c3ccccc3C(=O)OCCC2(C)C1 (stereo not given)
[1]
  TGI: > 100 µM
[2]
  TGI: > 100 µM
[3]
  TGI: > 100 µM
[4]
  TGI: > 100 µM
[5]
  TGI: > 100 µM
[6]
  TGI: > 100 µM
[7]
  TGI: > 100 µM
[8]
  TGI: > 100 µM
[9]
  TGI: > 100 µM
[10]
  TGI: > 100 µM
[11]
  TGI: > 100 µM
[12]
  TGI: > 100 µM
[13]
  TGI: > 100 µM
[14]
  TGI: > 100 µM
[15]
  TGI: > 100 µM
[16]
  TGI: > 100 µM
[17]
  TGI: > 100 µM
[18]
  TGI: > 100 µM
[19]
  TGI: > 100 µM
[20]
  TGI: > 100 µM
[21]
  TGI: > 100 µM
[22]
  TGI: > 100 µM
[23]
  TGI: > 100 µM
[24]
  TGI: > 100 µM
[25]
  TGI: > 100 µM
[26]
  TGI: > 100 µM
[27]
  TGI: > 100 µM
[28]
  TGI: > 100 µM
[29]
  TGI: > 100 µM
[30]
  TGI: > 100 µM
[31]
  TGI: > 100 µM
[32]
  TGI: > 100 µM
[33]
  TGI: > 100 µM
[34]
  TGI: > 100 µM
[35]
  TGI: > 100 µM
[36]
  TGI: > 100 µM
[38]
  TGI: > 100 µM
[39]
  TGI: > 100 µM
[42]
  TGI: > 100 µM
[43]
  TGI: > 100 µM
[44]
  TGI: > 100 µM
[45]
  TGI: > 100 µM
[46]
  TGI: > 100 µM
[47]
  TGI: > 100 µM
[48]
  TGI: > 100 µM
[49]
  TGI: > 100 µM
[50]
  TGI: > 100 µM
[51]
  TGI: > 100 µM
[52]
  TGI: > 100 µM
[53]
  TGI: > 100 µM
[54]
  TGI: > 100 µM
[55]
  TGI: > 100 µM
[56]
  TGI: > 100 µM
[57]
  TGI: > 100 µM
[58]
  TGI: > 100 µM
[59]
  TGI: > 100 µM

## C=C1C(=O)O[C@@H]2C(=O)[C@@H](C)[C@@H]3C=CC(=O)[C@@]3(C)[C@@H](OC(=O)/C(C)=C\C)[C@H]12
[1]
  TGI: 3.6 µM
[2]
  TGI: 1.68 µM
[3]
  TGI: 1.76 µM
[4]
  TGI: 3.23 µM
[5]
  TGI: 2.53 µM
[6]
  TGI: 1 µM
[7]
  TGI: 2.85 µM
[8]
  TGI: 6.04 µM
[9]
  TGI: 2.24 µM
[10]
  TGI: 5.11 µM
[11]
  TGI: 6.05 µM
[12]
  TGI: 2.01 µM
[13]
  TGI: 12 µM
[14]
  TGI: 1.01 µM
[15]
  TGI: 0.712 µM
[16]
  TGI: 9.89 µM
[17]
  TGI: 1.25 µM
[18]
  TGI: 0.415 µM
[19]
  TGI: 0.25 µM
[20]
  TGI: 1.47 µM
[21]
  TGI: 8.36 µM
[22]
  TGI: 2.65 µM
[23]
  TGI: 1.6 µM
[24]
  TGI: 0.681 µM
[25]
  TGI: 3.44 µM
[26]
  TGI: 0.609 µM
[27]
  TGI: 3.5 µM
[28]
  TGI: 3.28 µM
[29]
  TGI: 0.725 µM
[30]
  TGI: 3.69 µM
[31]
  TGI: 8 µM
[32]
  TGI: 27.4 µM
[33]
  TGI: 9.8 µM
[34]
  TGI: 1.74 µM
[35]
  TGI: 4.93 µM
[36]
  TGI: 4.69 µM
[37]
  TGI: 4.65 µM
[38]
  TGI: > 58.8 µM
[39]
  TGI: 2.95 µM
[40]
  TGI: 8.2 µM
[41]
  TGI: 25.9 µM
[42]
  TGI: 6.67 µM
[43]
  TGI: 6.22 µM
[44]
  TGI: 18.2 µM
[45]
  TGI: 0.686 µM
[46]
  TGI: 2.27 µM
[47]
  TGI: 2.99 µM
[48]
  TGI: 3.13 µM
[49]
  TGI: 1.43 µM
[50]
  TGI: 2.85 µM
[51]
  TGI: 19.9 µM
[52]
  TGI: 32.6 µM
[53]
  TGI: 1.64 µM
[54]
  TGI: 24.8 µM
[55]
  TGI: 1.36 µM
[56]
  TGI: 7.28 µM
[57]
  TGI: 26.9 µM
[58]
  TGI: 0.948 µM
[59]
  TGI: 3.67 µM

## N#CC(=S)Nc1ccc(Cl)c(Cl)c1
[1]
  TGI: 43.4 µM
[2]
  TGI: > 74.8 µM
[3]
  TGI: > 100 µM
[4]
  TGI: 34.8 µM
[5]
  TGI: 61.1 µM
[6]
  TGI: > 66.9 µM
[7]
  TGI: > 68.5 µM
[8]
  TGI: 44.8 µM
[9]
  TGI: 15.2 µM
[10]
  TGI: 48.5 µM
[11]
  GI50: 16 µM
  TGI: > 100 µM
[12]
  TGI: > 55.1 µM
[13]
  TGI: > 87.1 µM
[14]
  TGI: > 62.7 µM
[15]
  TGI: 67.4 µM
[16]
  TGI: 33.2 µM
[17]
  TGI: 13.4 µM
[18]
  GI50: 11.8 µM
  TGI: 40.9 µM
[19]
  GI50: 3.73 µM
  TGI: 24.2 µM
[20]
  TGI: 52.4 µM
[21]
  TGI: 60.5 µM
[22]
  TGI: 43.5 µM
[23]
  TGI: 66.2 µM
[24]
  TGI: > 50 µM
[25]
  TGI: 51.8 µM
[26]
  TGI: 82.5 µM
[27]
  TGI: > 100 µM
[28]
  TGI: 53.8 µM
[29]
  TGI: 49.5 µM
[30]
  TGI: > 70.5 µM
[31]
  TGI: > 95.6 µM
[32]
  TGI: 57.8 µM
[33]
  TGI: > 59.2 µM
[34]
  TGI: > 84.6 µM
[35]
  TGI: > 73.4 µM
[36]
  TGI: 55.9 µM
[37]
  TGI: > 54.7 µM
[38]
  GI50: 11.3 µM
  TGI: > 100 µM
[39]
  TGI: 34.1 µM
[40]
  TGI: > 60.6 µM
[41]
  TGI: > 100 µM
[42]
  TGI: > 85.1 µM
[43]
  TGI: > 94.5 µM
[44]
  GI50: 5.67 µM
  TGI: > 100 µM
[45]
  TGI: 55.1 µM
[46]
  TGI: 49.6 µM
[47]
  TGI: 88.3 µM
[48]
  TGI: > 51.3 µM
[49]
  TGI: 9.59 µM
[50]
  GI50: 7.63 µM
  TGI: 51.6 µM
[51]
  TGI: 74.7 µM
[52]
  TGI: > 100 µM
[53]
  TGI: 46.9 µM
[54]
  TGI: 99.5 µM
[55]
  TGI: 55.4 µM
[56]
  TGI: 65.4 µM
[57]
  TGI: 61.6 µM
[58]
  TGI: > 54.7 µM
[59]
  TGI: 54.3 µM

Reference: PubChem BioAssay (NCI)
